Test results reported in ChEMBL document CHEMBL3885861, “Open TG-GATES”.

Species on record: Rattus norvegicus
Assay: Open TG-GATES - Regimen: Daily Repeat
Format: toxicity, organism-based, Sprague-Dawley
Design: regimen Daily Repeat, gender Male, age 6 weeks
Details: in vivo, po, route gavage; for Bas / Eos / Fbg / MCHC / Neu / Plat / RBC / Ret / WBC / Lym / MCH / MCV / Mono: tissue Blood; for KIDNEY_L / KIDNEY_R / KIDNEY_TOTAL: tissue Kidney; for ALP / AST / CRE / DBIL / GLC / IP / LDH / PL / TBIL / TC / TG / TP / gamma-GTP / ALT / K / Na / RALB / Ca / Cl: tissue Plasma; for LIVER: tissue Liver
[1] = 0 mg/kg, 72 h, dose level Control, time 3 day
[2] = 0 mg/kg, […], dose level Control, time 14 day
[3] = 0 mg/kg, […], dose level Control, time 28 day
[4] = 1 mg/kg, 72 h, dose level Low, time 3 day
[5] = 1 mg/kg, […], dose level Low, time 14 day
[6] = 1 mg/kg, […], dose level Low, time 28 day
[7] = 3 mg/kg, 72 h, dose level Middle, time 3 day
[8] = 3 mg/kg, […], dose level Middle, time 14 day
[9] = 3 mg/kg, […], dose level Middle, time 28 day
[10] = 10 mg/kg, 72 h, dose level High, time 3 day
[11] = 10 mg/kg, […], dose level High, time 14 day
[12] = 10 mg/kg, […], dose level High, time 28 day

## O=C(O)Cc1ccccc1Nc1c(Cl)cccc1Cl [DICLOFENAC]
[1]
  TERMINAL_BW: 237.4 g
  Bas: 0%
  Eos: 1%
  Fbg: 222.6 mg/dL
  MCHC: 34.5%
  Neu: 21%
  Plat: 120.1 x10_4/uL
  RBC: 626.6 x10_4/ul
  Ret: 4.9%
  WBC: 105.4 x10_2/uL
  KIDNEY_L: 1 g
  KIDNEY_R: 1 g
  KIDNEY_TOTAL: 2 g
  ALP: 974.8 IU/L
  AST: 65 IU/L
  CRE: 0.4 mg/dL
  DBIL: 0.1 mg/dL
  GLC: 193 mg/dL
  IP: 7.8 mg/dL
  LDH: 163.8 IU/L
  PL: 160.6 mg/dL
  TBIL: 0.2 mg/dL
  TC: 74 mg/dL
  TG: 141 mg/dL
  TP: 5.6 g/dL
  gamma-GTP: 1.2 IU/L
[2]
  TERMINAL_BW: 317.2 g
  Bas: 0%
  Eos: 0.8%
  Fbg: 221.6 mg/dL
  Lym: 80.8%
  MCH: 21.5 pg
  MCHC: 35.9%
  MCV: 59.9 fL
  Mono: 2%
  Plat: 106.7 x10_4/uL
  Ret: 4%
  WBC: 92.1 x10_2/uL
  KIDNEY_L: 1.3 g
  KIDNEY_R: 1.3 g
  KIDNEY_TOTAL: 2.6 g
  ALP: 720.8 IU/L
  ALT: 31.2 IU/L
  CRE: 0.4 mg/dL
  DBIL: 0.1 mg/dL
  GLC: 220.2 mg/dL
  IP: 7.2 mg/dL
  K: 3.7 meq/L
  LDH: 170 IU/L
  Na: 140.2 meq/L
  PL: 143.8 mg/dL
  RALB: 3.4 g/dL
  TBIL: 0.2 mg/dL
  TC: 64.2 mg/dL
  TP: 6 g/dL
  gamma-GTP: 1 IU/L
[3]
  TERMINAL_BW: 396.3 g
  Bas: 0%
  Fbg: 219.8 mg/dL
  Lym: 84.2%
  MCH: 20.1 pg
  MCHC: 36.1%
  MCV: 55.9 fL
  Neu: 11.4%
  Plat: 102.6 x10_4/uL
  RBC: 801.6 x10_4/ul
  Ret: 2.3%
  WBC: 127.9 x10_2/uL
  KIDNEY_L: 1.4 g
  KIDNEY_R: 1.4 g
  KIDNEY_TOTAL: 2.8 g
  LIVER: 15.7 g
  ALP: 600.6 IU/L
  AST: 57 IU/L
  CRE: 0.5 mg/dL
  Ca: 10.3 mg/dL
  Cl: 101.8 meq/L
  DBIL: 0.1 mg/dL
  GLC: 240.8 mg/dL
  IP: 6.5 mg/dL
  K: 3.5 meq/L
  LDH: 146.4 IU/L
  Na: 140.4 meq/L
  PL: 151.4 mg/dL
  RALB: 3.6 g/dL
  TBIL: 0.2 mg/dL
  TC: 68.8 mg/dL
  TG: 145.6 mg/dL
  TP: 6.3 g/dL
  gamma-GTP: 0.8 IU/L
[4]
  TERMINAL_BW: 235.7 g
  Bas: 0%
  Eos: 1%
  Fbg: 217.6 mg/dL
  Mono: 3.4%
  Plat: 125.8 x10_4/uL
  RBC: 633.8 x10_4/ul
  Ret: 5%
  WBC: 89.1 x10_2/uL
  KIDNEY_L: 1 g
  KIDNEY_R: 1 g
  KIDNEY_TOTAL: 2.1 g
  LIVER: 11 g
  ALP: 1075.6 IU/L
  AST: 66 IU/L
  CRE: 0.4 mg/dL
  DBIL: 0.1 mg/dL
  GLC: 190 mg/dL
  LDH: 173.4 IU/L
  PL: 164.2 mg/dL
  TBIL: 0.2 mg/dL
  TC: 75.8 mg/dL
  TP: 5.7 g/dL
  gamma-GTP: 1 IU/L
[5]
  TERMINAL_BW: 319.9 g
  Bas: 0%
  Eos: 1%
  Fbg: 224.4 mg/dL
  Lym: 78.4%
  MCHC: 35.7%
  Plat: 114.5 x10_4/uL
  RBC: 699 x10_4/ul
  Ret: 3.8%
  WBC: 100.3 x10_2/uL
  KIDNEY_L: 1.3 g
  KIDNEY_R: 1.3 g
  KIDNEY_TOTAL: 2.6 g
  ALP: 890.6 IU/L
  ALT: 35.2 IU/L
  AST: 66.2 IU/L
  CRE: 0.4 mg/dL
  Ca: 10.6 mg/dL
  DBIL: 0.1 mg/dL
  GLC: 218.4 mg/dL
  IP: 7.8 mg/dL
  K: 3.7 meq/L
  LDH: 192.8 IU/L
  Na: 140.8 meq/L
  PL: 173.4 mg/dL
  RALB: 3.4 g/dL
  TBIL: 0.2 mg/dL
  TC: 81.4 mg/dL
  TG: 151.6 mg/dL
  TP: 5.9 g/dL
  gamma-GTP: 0.4 IU/L
[6]
  TERMINAL_BW: 385.2 g
  Bas: 0%
  Eos: 1.4%
  Lym: 80%
  MCH: 20.1 pg
  MCHC: 36.1%
  MCV: 55.6 fL
  Neu: 15.4%
  Plat: 108.4 x10_4/uL
  RBC: 796.2 x10_4/ul
  Ret: 1.8%
  WBC: 95.4 x10_2/uL
  KIDNEY_L: 1.4 g
  KIDNEY_R: 1.4 g
  KIDNEY_TOTAL: 2.8 g
  LIVER: 14.8 g
  ALP: 610.6 IU/L
  ALT: 29.4 IU/L
  AST: 61.4 IU/L
  CRE: 0.4 mg/dL
  DBIL: 0.088 mg/dL
  GLC: 215.8 mg/dL
  IP: 6.7 mg/dL
  K: 3.5 meq/L
  LDH: 165.4 IU/L
  PL: 141.4 mg/dL
  RALB: 3.4 g/dL
  TBIL: 0.2 mg/dL
  TP: 6.2 g/dL
  gamma-GTP: 0.2 IU/L
[7]
  TERMINAL_BW: 236.5 g
  Bas: 0%
  Eos: 1%
  Fbg: 214.8 mg/dL
  Lym: 79.8%
  MCH: 21.5 pg
  Plat: 125.2 x10_4/uL
  RBC: 641.4 x10_4/ul
  WBC: 112.9 x10_2/uL
  KIDNEY_L: 1 g
  KIDNEY_TOTAL: 2.1 g
  LIVER: 11.2 g
  ALP: 1064.8 IU/L
  ALT: 39.2 IU/L
  AST: 69.2 IU/L
  CRE: 0.3 mg/dL
  DBIL: 0.1 mg/dL
  GLC: 194.8 mg/dL
  IP: 7.1 mg/dL
  LDH: 186 IU/L
  PL: 170.8 mg/dL
  RALB: 3.4 g/dL
  TBIL: 0.2 mg/dL
  TC: 84.2 mg/dL
  TG: 122 mg/dL
  gamma-GTP: 1.2 IU/L
[8]
  TERMINAL_BW: 309.6 g
  Bas: 0%
  Eos: 1%
  Fbg: 226 mg/dL
  MCH: 20.8 pg
  MCHC: 35.6%
  MCV: 58.4 fL
  Neu: 14.2%
  Plat: 116.2 x10_4/uL
  RBC: 705.4 x10_4/ul
  Ret: 3.5%
  WBC: 117.1 x10_2/uL
  ALP: 835 IU/L
  ALT: 35 IU/L
  AST: 70.8 IU/L
  CRE: 0.4 mg/dL
  GLC: 224.2 mg/dL
  IP: 7.6 mg/dL
  K: 3.5 meq/L
  LDH: 198.8 IU/L
  PL: 151.2 mg/dL
  RALB: 3.3 g/dL
  TBIL: 0.1 mg/dL
  TC: 71.8 mg/dL
  TG: 135.8 mg/dL
  gamma-GTP: 0.8 IU/L
[9]
  TERMINAL_BW: 391.3 g
  Bas: 0%
  Eos: 1%
  Fbg: 216.2 mg/dL
  Lym: 83.2%
  MCH: 20 pg
  MCHC: 36.1%
  MCV: 55.4 fL
  Plat: 110.4 x10_4/uL
  RBC: 789.2 x10_4/ul
  Ret: 2.2%
  WBC: 97.8 x10_2/uL
  KIDNEY_L: 1.4 g
  KIDNEY_R: 1.4 g
  KIDNEY_TOTAL: 2.8 g
  LIVER: 15.1 g
  ALP: 618.6 IU/L
  AST: 61 IU/L
  CRE: 0.5 mg/dL
  Ca: 10.3 mg/dL
  DBIL: 0.086 mg/dL
  GLC: 221.2 mg/dL
  IP: 7.1 mg/dL
  K: 3.6 meq/L
  LDH: 177 IU/L
  Na: 140.8 meq/L
  PL: 130.2 mg/dL
  RALB: 3.4 g/dL
  TBIL: 0.1 mg/dL
  TC: 60 mg/dL
  TP: 6.2 g/dL
  gamma-GTP: 0.6 IU/L
[10]
  TERMINAL_BW: 234.4 g
  Bas: 0%
  Eos: 1%
  Fbg: 231.8 mg/dL
  MCH: 22 pg
  MCV: 63.1 fL
  Neu: 22.4%
  Plat: 128.5 x10_4/uL
  RBC: 591.2 x10_4/ul
  Ret: 4.9%
  WBC: 114.7 x10_2/uL
  KIDNEY_L: 1 g
  KIDNEY_R: 1 g
  KIDNEY_TOTAL: 2 g
  LIVER: 11 g
  ALP: 912.8 IU/L
  ALT: 35.6 IU/L
  AST: 65.2 IU/L
  CRE: 0.4 mg/dL
  DBIL: 0.1 mg/dL
  GLC: 186.6 mg/dL
  IP: 7 mg/dL
  LDH: 196.8 IU/L
  Na: 141.6 meq/L
  PL: 156.8 mg/dL
  RALB: 3.3 g/dL
  TBIL: 0.2 mg/dL
  TC: 77.8 mg/dL
  TG: 107.6 mg/dL
  TP: 5.6 g/dL
  gamma-GTP: 0.4 IU/L
[11]
  TERMINAL_BW: 295.1 g
  Bas: 0%
  Eos: 1.4%
  Fbg: 278.8 mg/dL
  Lym: 64%
  MCH: 21.5 pg
  MCHC: 34%
  Mono: 4.4%
  Neu: 29%
  Plat: 157.6 x10_4/uL
  RBC: 593.2 x10_4/ul
  Ret: 12%
  WBC: 192.8 x10_2/uL
  LIVER: 13 g
  ALP: 513.4 IU/L
  ALT: 26.4 IU/L
  AST: 60.4 IU/L
  CRE: 0.4 mg/dL
  GLC: 191.8 mg/dL
  IP: 7.6 mg/dL
  K: 3.9 meq/L
  LDH: 213 IU/L
  PL: 162.6 mg/dL
  RALB: 3 g/dL
  TBIL: 0.1 mg/dL
  TC: 78.4 mg/dL
  TG: 132.2 mg/dL
  TP: 5.4 g/dL
  gamma-GTP: 0.8 IU/L
[12]
  TERMINAL_BW: 341.6 g
  Bas: 0%
  Eos: 1%
  Fbg: 282.4 mg/dL
  Lym: 61.6%
  MCH: 20.3 pg
  MCHC: 32.7%
  Neu: 33%
  Plat: 164.9 x10_4/uL
  RBC: 584.4 x10_4/ul
  WBC: 199.6 x10_2/uL
  KIDNEY_L: 1.3 g
  KIDNEY_R: 1.3 g
  KIDNEY_TOTAL: 2.6 g
  ALP: 538.6 IU/L
  ALT: 25.6 IU/L
  AST: 55.2 IU/L
  CRE: 0.4 mg/dL
  Cl: 104.8 meq/L
  DBIL: 0.07 mg/dL
  GLC: 191.4 mg/dL
  IP: 7.1 mg/dL
  K: 3.9 meq/L
  LDH: 226 IU/L
  Na: 140.8 meq/L
  PL: 146 mg/dL
  RALB: 2.7 g/dL
  TBIL: 0.1 mg/dL
  TC: 68.2 mg/dL
  TG: 123.2 mg/dL
  TP: 5.3 g/dL
  gamma-GTP: 0.8 IU/L
